From PubChem BioAssay AID1996
Values after ≈ are worked out from the molar mass of the structure shown.

conditions: buffer; pH 7.4; 200.0 µM

First: C=CCNc1nc(C(=O)OCC(=O)Nc2ccccc2C(F)(F)F)cs1
Second: CN(Cc1ccccc1Cl)C(=O)c1cnccc1C(F)(F)F
The solubility kinetic of the first is lower: 26.9 µg/mL (≈ 69.8 µM) for the first, > 49.3 µg/mL for the second.

First: O=C(Nc1cc(Cl)c(Cl)cc1Cl)c1cccnc1
Second: O=C(NCCCNC(=O)c1cnccn1)c1ccc(Cl)c(Cl)c1
The solubility kinetic of the first is 6.8-fold lower: 6.1 µg/mL (≈ 20.2 µM) for the first, 41.4 µg/mL (≈ 117 µM) for the second.

Compared with `c1ccc(-c2nccnc2-c2ccccc2)cc1`, `N#CCc1nc(C(c2ccccc2)c2ccccc2)no1` is 1.6-fold higher in solubility kinetic: 21.5 µg/mL (≈ 92.6 µM) for the first, 33.5 µg/mL (≈ 122 µM) for the second.

`O=[N+]([O-])c1ccccc1OC/C(=N\O)c1ccccc1` and `N/C(=N/S(=O)(=O)c1ccccc1)c1cccc([N+](=O)[O-])c1` cannot be ordered by solubility kinetic: > 40.8 µg/mL for the first, > 45.8 µg/mL for the second.

Compared with `O=[N+]([O-])c1ccc(Oc2ccc(Oc3ccc(C(F)(F)F)cn3)cc2)nc1`, `CC(=O)Nc1ccc(OCCOc2ccc(NC(C)=O)cc2)cc1` is 7.3-fold higher in solubility kinetic: 0.3 µg/mL (≈ 0.795 µM) for the first, 2.2 µg/mL (≈ 6.7 µM) for the second.

Compared with `Cc1cc(C)c(S(=O)(=O)Nc2ccncc2)cc1C`, `COc1ccc(Nc2nc(C)cc(C)n2)cc1Cl.Cl` is higher in solubility kinetic: 19.2 µg/mL (≈ 69.5 µM) for the first, > 45 µg/mL for the second.

Compared with `O=C(c1ccc(F)cc1)N1CCN(c2ccc([N+](=O)[O-])cc2-n2cccc2)CC1`, `O=C(OCc1cc2ccccc2[nH]c1=O)c1ccc([N+](=O)[O-])cc1` is 3-fold lower in solubility kinetic: 3.3 µg/mL (≈ 8.37 µM) for the first, 1.1 µg/mL (≈ 3.39 µM) for the second.

First: O=C(O)CSc1ccnc2cc(Cl)ccc12
Second: O=c1c2ccc(Cl)cc2nc2n1CC/C2=C\c1cccc(O)c1
The solubility kinetic of the first is higher: > 38.1 µg/mL for the first, 2.9 µg/mL (≈ 8.93 µM) for the second.

Compared with `O=C(COC(=O)/C=C/c1cccc(F)c1)NC(=O)NCc1ccccc1`, `O=C(Cn1cccc1C(=O)c1ccccc1)NCc1ccc(Cl)cc1` is 2.5-fold lower in solubility kinetic: 2.8 µg/mL (≈ 7.86 µM) for the first, 1.1 µg/mL (≈ 3.12 µM) for the second.

Going from `Cc1cc(NC(=O)Cn2cnc3sccc3c2=O)no1` to `Cc1cc(NC(=O)CN2C(=O)c3ccccc3S2(=O)=O)no1`, the solubility kinetic rises from 7.8 µg/mL (≈ 26.9 µM) to 32.7 µg/mL (≈ 102 µM) (4.2-fold).

`C=CCNC(=O)C(=O)NCC1CCCN1CC` (stereo unspecified) and `CCC(C)C(=O)Nc1ccc(S(=O)(=O)N2CCCC2)cc1` (stereo unspecified) cannot be ordered by solubility kinetic: > 35.9 µg/mL for the first, 42.3 µg/mL (≈ 136 µM) for the second.

First: Cc1ccc(OCc2ccc(C(=O)N3CCCC3)o2)cc1C
Second: Br.COc1ccc(C(=O)CN2CCCCC2)cc1
The solubility kinetic of the first is lower: 31.8 µg/mL (≈ 106 µM) for the first, > 47.1 µg/mL for the second.

`N#Cc1ccccc1NC(=O)c1ccc2c(c1)OCCO2` and `COc1ccc(S(=O)(=O)N2CCOCC2)cc1NC(=O)CCCOc1ccccc1` are within 1.5-fold of each other in solubility kinetic: 37.4 µg/mL (≈ 133 µM) for the first, 40.9 µg/mL (≈ 94.1 µM) for the second.

`CC(=O)C1=C(O)C(=O)N(c2nccs2)C1c1ccccc1F` (stereo unspecified) and `Cc1ccc(C2C(C(=O)c3ccco3)=C(O)C(=O)N2c2ncccn2)cc1` (stereo unspecified) cannot be ordered by solubility kinetic: > 47.7 µg/mL for the first, > 54.2 µg/mL for the second.

First: O=C(CCc1c[nH]c2ccccc12)OCc1cccc([N+](=O)[O-])c1
Second: CC(C)CC(=O)Nc1cccc(-c2nc3ccccc3[nH]2)c1
The solubility kinetic of the first is lower: < 0.3 µg/mL for the first, 32.2 µg/mL (≈ 110 µM) for the second.

`O=C1NC(=O)N(CC2CCCO2)C(=O)/C1=C/c1cccs1` (stereo unspecified) and `O=C(CSc1n[nH]c(=O)n1C1CC1)NCc1ccccc1Cl` cannot be ordered by solubility kinetic: > 46 µg/mL for the first, > 50.8 µg/mL for the second.

`CN(C1CCCCC1)S(=O)(=O)c1cccc2nsnc12` and `CN(CC(=O)OCC(=O)NC1CCCC1)S(=O)(=O)c1ccc(Cl)cc1` cannot be ordered by solubility kinetic: > 46.7 µg/mL for the first, > 58.3 µg/mL for the second.

`Cc1ccc2nc(N3CCN(CCO)CC3)nc(-c3ccccc3)c2c1` and `OCCN1CCN(c2cc(C(F)(F)F)nc3ccccc23)CC1` cannot be ordered by solubility kinetic: > 52.3 µg/mL for the first, > 48.8 µg/mL for the second.

Going from `Cc1csc(NC(=S)NC(=O)c2ccccc2)n1` to `CN(C)C(=O)C#Cc1ccccc1`, the solubility kinetic rises from 1 µg/mL (≈ 3.61 µM) to > 26 µg/mL.

Compared with `COc1cc(CCC(=O)N2CC(C)OC(C)C2)cc(OC)c1OC` (stereo unspecified), `C=CCOc1ccc(/C=C2/C(=O)ON=C2C)cc1OC` is lower in solubility kinetic: > 50.6 µg/mL for the first, 26.2 µg/mL (≈ 95.9 µM) for the second.

First: CC1NC(=S)N(Cc2ccccc2)C1=O (stereo unspecified)
Second: COCCN1C2=C(COC(C)(C)C2)C(=S)NC1c1ccccc1 (stereo unspecified)
The solubility kinetic of the first is lower: 31.9 µg/mL (≈ 145 µM) for the first, > 49.9 µg/mL for the second.

`CC1CCN(CC(=O)N2CCc3ccccc32)CC1` and `C/C(=C/c1ccccc1)C(=O)N1CCN(c2ccccc2)CC1` are within 1.5-fold of each other in solubility kinetic: 36.9 µg/mL (≈ 143 µM) for the first, 37.1 µg/mL (≈ 121 µM) for the second.

`CCOc1c(Nc2ccccc2O)c(=O)c1=O` and `CSc1ccc(CN(C)C(=O)c2cc(=O)c3ccccc3o2)cc1` cannot be ordered by solubility kinetic: > 35 µg/mL for the first, > 50.9 µg/mL for the second.

`O=C(O)c1cccnc1Sc1ccc(Br)cc1` and `COc1ccc(NC(=O)c2ccccc2-c2ccccc2C(=O)O)cc1` cannot be ordered by solubility kinetic: > 46.5 µg/mL for the first, > 52.1 µg/mL for the second.

First: Cc1cccc(CN2CCN(c3ccc(Cl)cc3)CC2)c1
Second: OCCN1CCN(C(c2cccs2)c2ccc3cccnc3c2O)CC1 (stereo unspecified)
The solubility kinetic of the first is 22-fold lower: 2 µg/mL (≈ 6.65 µM) for the first, 44 µg/mL (≈ 119 µM) for the second.

`O=c1c2[nH]cnc2n(-c2cccc(F)c2)c(=O)n1Cc1ccccc1` and `COc1ccc(NCCc2ccccn2)cc1.Cl` cannot be ordered by solubility kinetic: > 50.4 µg/mL for the first, > 45.2 µg/mL for the second.

First: NC(=S)COc1ccccc1
Second: CN(C)C(=S)Nc1cccc(F)c1
The solubility kinetic of the first is 1.6-fold lower: 18.3 µg/mL (≈ 109 µM) for the first, 28.5 µg/mL (≈ 144 µM) for the second.

Going from `CC(C)CN(C(=O)C1CCCC1)C1CCS(=O)(=O)C1` (stereo unspecified) to `CCC(CC)C(=O)Nc1ccc(C(=O)Nc2cc(C)on2)cc1`, the solubility kinetic falls from > 43.1 µg/mL to 5.7 µg/mL (≈ 18.1 µM).

Going from `C#CCOC(=O)Nc1cnccc1C(F)(F)F` to `Cc1ccc(C)c(OC(C)C(=O)Nc2nccs2)c1` (stereo unspecified), the solubility kinetic falls from > 36.6 µg/mL to 32.8 µg/mL (≈ 119 µM).

`Nc1nc2cc(S(=O)(=O)N3CCOCC3)ccc2o1` and `COc1ccc(CCCc2n[nH]c(=S)o2)cc1C` cannot be ordered by solubility kinetic: > 42.5 µg/mL for the first, > 39.7 µg/mL for the second.

`NC(=S)Nc1cc(Cl)cc(Cl)c1` gave a solubility kinetic of 33 µg/mL (≈ 149 µM).
